# In patent US20230017045A1, “PYRIDINE AND PYRIMIDINE CARBOXYLATE HERBICIDES AND METHODS OF USE THEREOF” (Dow AgroSciences LLC, priority 2017, published 2023):
# Tested on: test plant species
# Test: Post-emergent herbicidal activity test (greenhouse, foliar spray, visual growth reduction)
# Assay type: in vivo
# Conditions: post-emergence, 336 h, ALOMY: blackgrass (Alopecurus myosuroides), 140 g ai/ha, 14 days after application, read-out: Visual Growth Reduction (%) 14 Days After Application, ALOMY
# Method: Post-emergent Test: Seeds or nutlets of the desired test plant species were planted in Sun Gro Metro-Mix® 360 planting mixture, which typically has a pH of 6.0 to 6.8 and an organic matter content of about 30 percent, in plastic pots with a surface area of 64 square centimeters. In some aspects, to ensure good germination and healthy plants, a fungicide treatment and/or other chemical or physical treatment was applied. The plants were grown for 7-21 d in a greenhouse with an approximate 15 h photoperiod which was maintained at 23-29° C. during the day and 22-28° C. during the night. Nutrients and water were added on a regular basis and supplemental lighting was provided with overhead metal halide 1000-Watt lamps as necessary. Plants were used for testing when they reached the first or second true leaf stage. A weighed amount, determined by the highest rate to be tested, of each test compound was placed in a 25 mL glass vial and was dissolved in 4 mL of a 97:3 v/v mixture of acetone and DMSO to obtain concentrated stock solutions. […] The concentrated stock solutions obtained were diluted with 20 mL of an aqueous mixture containing acetone, water, isopropyl alcohol, DMSO, […] crop oil concentrate, and X-77 surfactant in a 48.5:39:10:1.5:1.0:0.02 v/v ratio to obtain spray solutions containing the application rate. Compound requirements are based upon a 12 mL application volume at a rate of 187 liters per hectare (L/ha). Formulated compounds were applied to the plant material with an overhead Mandel track sprayer equipped with […] nozzles calibrated to deliver 187 L/ha over an application area of 0.64 square meters at a spray height of 18 inches (43 cm) above the average plant canopy height. Control plants were sprayed in the same manner with the solvent blank. The treated plants and control plants were placed in a greenhouse as described above and watered by subirrigation to prevent wash-off of the test compounds. After 14 d, the condition of the test plants as compared with that of the nontreated and control plants was determined visually and scored on a scale of 0 to 100 percent where 0 corresponds to no injury and 100 corresponds to complete control. In the reporting of the results, Table A: Percent Growth Reduction Conversion Table was used.
row,SMILES,pest or weed control at 140 g/ha
1,"COC(=O)c1nc(-c2ccc(C(F)(F)F)cc2OC)c(F)cc1Cl [F166, Methyl 3-chloro-5-fluoro-6-(2-methoxy-4-(trifluoromethyl)phenyl)picolinate]",0 to 29%

# Same assay, conditions: post-emergence, 336 h, AMARE: redroot pigweed (Amaranthus retroflexus), 140 g ai/ha, 14 days after application, read-out: Visual Growth Reduction (%) 14 Days After Application, AMARE
row,SMILES,pest or weed control at 140 g/ha
1,"COC(=O)c1nc(-c2ccc(C(F)(F)F)cc2OC)c(F)cc1Cl [F166, Methyl 3-chloro-5-fluoro-6-(2-methoxy-4-(trifluoromethyl)phenyl)picolinate]",95 to 100%

# Same assay, conditions: post-emergence, 336 h, AVEFA: wild oat (Avena fatua), 140 g ai/ha, 14 days after application, read-out: Visual Growth Reduction (%) 14 Days After Application, AVEFA
row,SMILES,pest or weed control at 140 g/ha
1,"COC(=O)c1nc(-c2ccc(C(F)(F)F)cc2OC)c(F)cc1Cl [F166, Methyl 3-chloro-5-fluoro-6-(2-methoxy-4-(trifluoromethyl)phenyl)picolinate]",75 to 84%

# Same assay, conditions: post-emergence, 336 h, CHEAL: lambsquarters (Chenopodium album), 140 g ai/ha, 14 days after application, read-out: Visual Growth Reduction (%) 14 Days After Application, CHEAL
row,SMILES,pest or weed control at 140 g/ha
1,"COC(=O)c1nc(-c2ccc(C(F)(F)F)cc2OC)c(F)cc1Cl [F166, Methyl 3-chloro-5-fluoro-6-(2-methoxy-4-(trifluoromethyl)phenyl)picolinate]",85 to 94%

# Same assay, conditions: post-emergence, 336 h, CIRAR: canada thistle (Cirsium arvense), 140 g ai/ha, 14 days after application, read-out: Visual Growth Reduction (%) 14 Days After Application, CIRAR
row,SMILES,pest or weed control at 140 g/ha
1,"COC(=O)c1nc(-c2ccc(C(F)(F)F)cc2OC)c(F)cc1Cl [F166, Methyl 3-chloro-5-fluoro-6-(2-methoxy-4-(trifluoromethyl)phenyl)picolinate]",85 to 94%

# Same assay, conditions: post-emergence, 336 h, CYPES: yellow nutsedge (Cyperus esculentus), 140 g ai/ha, 14 days after application, read-out: Visual Growth Reduction (%) 14 Days After Application, CYPES
row,SMILES,pest or weed control at 140 g/ha
1,"COC(=O)c1nc(-c2ccc(C(F)(F)F)cc2OC)c(F)cc1Cl [F166, Methyl 3-chloro-5-fluoro-6-(2-methoxy-4-(trifluoromethyl)phenyl)picolinate]",0 to 29%

# Same assay, conditions: post-emergence, 336 h, DIGSA: crabgrass (Digitaria sanguinalis), 140 g ai/ha, 14 days after application, read-out: Visual Growth Reduction (%) 14 Days After Application, DIGSA
row,SMILES,pest or weed control at 140 g/ha
1,"COC(=O)c1nc(-c2ccc(C(F)(F)F)cc2OC)c(F)cc1Cl [F166, Methyl 3-chloro-5-fluoro-6-(2-methoxy-4-(trifluoromethyl)phenyl)picolinate]",75 to 84%

# Same assay, conditions: post-emergence, 336 h, ECHCG: barnyardgrass (Echinochloa crus-galli), 140 g ai/ha, 14 days after application, read-out: Visual Growth Reduction (%) 14 Days After Application, ECHCG
row,SMILES,pest or weed control at 140 g/ha
1,"COC(=O)c1nc(-c2ccc(C(F)(F)F)c(F)c2)c(F)cc1Cl [F307, Methyl 3-chloro-5-fluoro-6-(3-fluoro-4-(trifluoromethyl)phenyl) picolinate]",0 to 29%
2,"COC(=O)c1nc(-c2ccc(C(F)(F)F)cc2OC)c(F)cc1Cl [F166, Methyl 3-chloro-5-fluoro-6-(2-methoxy-4-(trifluoromethyl)phenyl)picolinate]",95 to 100%

# Same assay, conditions: post-emergence, 336 h, IPOHE: ivy-leaf morning glory (Ipomoea hederacea), 140 g ai/ha, 14 days after application, read-out: Visual Growth Reduction (%) 14 Days After Application, IPOHE
row,SMILES,pest or weed control at 140 g/ha
1,"COC(=O)c1nc(-c2ccc(C(F)(F)F)c(F)c2)c(F)cc1Cl [F307, Methyl 3-chloro-5-fluoro-6-(3-fluoro-4-(trifluoromethyl)phenyl) picolinate]",95 to 100%
2,"COC(=O)c1nc(-c2ccc(C(F)(F)F)cc2OC)c(F)cc1Cl [F166, Methyl 3-chloro-5-fluoro-6-(2-methoxy-4-(trifluoromethyl)phenyl)picolinate]",95 to 100%

# Same assay, conditions: post-emergence, 336 h, KCHSC: kochia (Bassia scoparia), 140 g ai/ha, 14 days after application, read-out: Visual Growth Reduction (%) 14 Days After Application, KCHSC
row,SMILES,pest or weed control at 140 g/ha
1,"COC(=O)c1nc(-c2ccc(C(F)(F)F)c(F)c2)c(F)cc1Cl [F307, Methyl 3-chloro-5-fluoro-6-(3-fluoro-4-(trifluoromethyl)phenyl) picolinate]",0 to 29%
2,"COC(=O)c1nc(-c2ccc(C(F)(F)F)cc2OC)c(F)cc1Cl [F166, Methyl 3-chloro-5-fluoro-6-(2-methoxy-4-(trifluoromethyl)phenyl)picolinate]",95 to 100%

# Same assay, conditions: post-emergence, 336 h, ORYSA: rice (Oryza sativa), 140 g ai/ha, 14 days after application, read-out: Visual Growth Reduction (%) 14 Days After Application, ORYSA
row,SMILES,pest or weed control at 140 g/ha
1,"COC(=O)c1nc(-c2ccc(C(F)(F)F)c(F)c2)c(F)cc1Cl [F307, Methyl 3-chloro-5-fluoro-6-(3-fluoro-4-(trifluoromethyl)phenyl) picolinate]",0 to 29%
2,"COC(=O)c1nc(-c2ccc(C(F)(F)F)cc2OC)c(F)cc1Cl [F166, Methyl 3-chloro-5-fluoro-6-(2-methoxy-4-(trifluoromethyl)phenyl)picolinate]",0 to 29%

# Same assay, conditions: post-emergence, 336 h, SETFA: giant foxtail (Setaria faberi), 140 g ai/ha, 14 days after application, read-out: Visual Growth Reduction (%) 14 Days After Application, SETFA
row,SMILES,pest or weed control at 140 g/ha
1,"COC(=O)c1nc(-c2ccc(C(F)(F)F)c(F)c2)c(F)cc1Cl [F307, Methyl 3-chloro-5-fluoro-6-(3-fluoro-4-(trifluoromethyl)phenyl) picolinate]",0 to 29%
2,"COC(=O)c1nc(-c2ccc(C(F)(F)F)cc2OC)c(F)cc1Cl [F166, Methyl 3-chloro-5-fluoro-6-(2-methoxy-4-(trifluoromethyl)phenyl)picolinate]",85 to 94%

# Same assay, conditions: post-emergence, 336 h, SORVU: grain sorghum (Sorghum vulgare), 140 g ai/ha, 14 days after application, read-out: Visual Growth Reduction (%) 14 Days After Application, SORVU
row,SMILES,pest or weed control at 140 g/ha
1,"COC(=O)c1nc(-c2ccc(C(F)(F)F)c(F)c2)c(F)cc1Cl [F307, Methyl 3-chloro-5-fluoro-6-(3-fluoro-4-(trifluoromethyl)phenyl) picolinate]",85 to 94%
2,"COC(=O)c1nc(-c2ccc(C(F)(F)F)cc2OC)c(F)cc1Cl [F166, Methyl 3-chloro-5-fluoro-6-(2-methoxy-4-(trifluoromethyl)phenyl)picolinate]",85 to 94%

# Same assay, conditions: post-emergence, 336 h, STEME: common chickweed (Stellaria media), 140 g ai/ha, 14 days after application, read-out: Visual Growth Reduction (%) 14 Days After Application, STEME
row,SMILES,pest or weed control at 140 g/ha
1,"COC(=O)c1nc(-c2ccc(C(F)(F)F)c(F)c2)c(F)cc1Cl [F307, Methyl 3-chloro-5-fluoro-6-(3-fluoro-4-(trifluoromethyl)phenyl) picolinate]",0 to 29%
2,"COC(=O)c1nc(-c2ccc(C(F)(F)F)cc2OC)c(F)cc1Cl [F166, Methyl 3-chloro-5-fluoro-6-(2-methoxy-4-(trifluoromethyl)phenyl)picolinate]",30 to 44%

# Same assay, conditions: post-emergence, 336 h, TRZAS: wheat, spring (Triticum aestivum), 140 g ai/ha, 14 days after application, read-out: Visual Growth Reduction (%) 14 Days After Application, TRZAS
row,SMILES,pest or weed control at 140 g/ha
1,"COC(=O)c1nc(-c2ccc(C(F)(F)F)c(F)c2)c(F)cc1Cl [F307, Methyl 3-chloro-5-fluoro-6-(3-fluoro-4-(trifluoromethyl)phenyl) picolinate]",0 to 29%
2,"COC(=O)c1nc(-c2ccc(C(F)(F)F)cc2OC)c(F)cc1Cl [F166, Methyl 3-chloro-5-fluoro-6-(2-methoxy-4-(trifluoromethyl)phenyl)picolinate]",75 to 84%

# Same assay, conditions: post-emergence, 336 h, blackgrass (Alopecurus myosuroides), 14 Days After Application, 140 g ai/ha, read-out: Visual Growth Reduction (%) ALOMY
row,SMILES,pest or weed control at 140 g/ha
1,"COC(=O)c1nc(-c2ccc(C(F)(F)F)c(F)c2)c(F)cc1Cl [F307, Methyl 3-chloro-5-fluoro-6-(3-fluoro-4-(trifluoromethyl)phenyl) picolinate]",0 to 29%

# Same assay, conditions: post-emergence, 336 h, canada thistle (Cirsium arvense), 14 Days After Application, 140 g ai/ha, read-out: Visual Growth Reduction (%) CIRAR
row,SMILES,pest or weed control at 140 g/ha
1,"COC(=O)c1nc(-c2ccc(C(F)(F)F)c(F)c2)c(F)cc1Cl [F307, Methyl 3-chloro-5-fluoro-6-(3-fluoro-4-(trifluoromethyl)phenyl) picolinate]",0 to 29%

# Same assay, conditions: post-emergence, 336 h, crabgrass (Digitaria sanguinalis), 14 Days After Application, 140 g ai/ha, read-out: Visual Growth Reduction (%) DIGSA
row,SMILES,pest or weed control at 140 g/ha
1,"COC(=O)c1nc(-c2ccc(C(F)(F)F)c(F)c2)c(F)cc1Cl [F307, Methyl 3-chloro-5-fluoro-6-(3-fluoro-4-(trifluoromethyl)phenyl) picolinate]",85 to 94%

# Same assay, conditions: post-emergence, 336 h, lambsquarters (Chenopodium album), 14 Days After Application, 140 g ai/ha, read-out: Visual Growth Reduction (%) CHEAL
row,SMILES,pest or weed control at 140 g/ha
1,"COC(=O)c1nc(-c2ccc(C(F)(F)F)c(F)c2)c(F)cc1Cl [F307, Methyl 3-chloro-5-fluoro-6-(3-fluoro-4-(trifluoromethyl)phenyl) picolinate]",75 to 84%

# Same assay, conditions: post-emergence, 336 h, redroot pigweed (Amaranthus retroflexus), 14 Days After Application, 140 g ai/ha, read-out: Visual Growth Reduction (%) AMARE
row,SMILES,pest or weed control at 140 g/ha
1,"COC(=O)c1nc(-c2ccc(C(F)(F)F)c(F)c2)c(F)cc1Cl [F307, Methyl 3-chloro-5-fluoro-6-(3-fluoro-4-(trifluoromethyl)phenyl) picolinate]",75 to 84%

# Same assay, conditions: post-emergence, 336 h, wild oat (Avena fatua), 14 Days After Application, 140 g ai/ha, read-out: Visual Growth Reduction (%) AVEFA
row,SMILES,pest or weed control at 140 g/ha
1,"COC(=O)c1nc(-c2ccc(C(F)(F)F)c(F)c2)c(F)cc1Cl [F307, Methyl 3-chloro-5-fluoro-6-(3-fluoro-4-(trifluoromethyl)phenyl) picolinate]",0 to 29%

# Same assay, conditions: post-emergence, 336 h, yellow nutsedge (Cyperus esculentus), 14 Days After Application, 140 g ai/ha, read-out: Visual Growth Reduction (%) CYPES
row,SMILES,pest or weed control at 140 g/ha
1,"COC(=O)c1nc(-c2ccc(C(F)(F)F)c(F)c2)c(F)cc1Cl [F307, Methyl 3-chloro-5-fluoro-6-(3-fluoro-4-(trifluoromethyl)phenyl) picolinate]",0 to 29%
